Target: T1, mGlyT-1b (Mus musculus, UniProt P28571)
T1 construct: host or cells: Flp-in-CHO cells
T1 sequence (P28571 1-651 isoform P28571-2): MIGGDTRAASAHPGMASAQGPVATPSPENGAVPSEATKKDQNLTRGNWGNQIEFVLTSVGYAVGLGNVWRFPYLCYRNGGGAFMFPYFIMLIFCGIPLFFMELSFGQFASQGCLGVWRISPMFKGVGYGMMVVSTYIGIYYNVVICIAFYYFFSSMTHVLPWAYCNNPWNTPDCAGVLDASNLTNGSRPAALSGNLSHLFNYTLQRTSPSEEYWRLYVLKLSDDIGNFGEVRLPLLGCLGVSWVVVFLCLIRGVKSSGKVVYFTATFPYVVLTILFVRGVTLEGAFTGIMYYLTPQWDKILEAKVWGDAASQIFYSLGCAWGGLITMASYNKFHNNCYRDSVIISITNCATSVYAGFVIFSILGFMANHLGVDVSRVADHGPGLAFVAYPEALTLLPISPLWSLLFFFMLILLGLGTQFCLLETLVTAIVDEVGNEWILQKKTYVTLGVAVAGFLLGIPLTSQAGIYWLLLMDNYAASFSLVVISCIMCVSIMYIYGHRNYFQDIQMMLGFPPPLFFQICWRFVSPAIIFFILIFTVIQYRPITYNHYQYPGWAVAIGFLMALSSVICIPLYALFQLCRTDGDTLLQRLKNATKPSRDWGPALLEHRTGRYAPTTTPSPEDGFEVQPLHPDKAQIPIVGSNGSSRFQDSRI
Assay: Glycine Uptake Inhibition Assay (mGlyT-1b)
Type: cell-based
Conditions: [3H]-glycine uptake inhibition at GlyT-1, Flp-in-CHO cells transfected with mGlyT-1b cDNA
In short: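 Flp-in CHO cells stably expressing mouse GlyT-1b preincubated 20 min at 22 °C with inhibitor in pH 7.4 uptake buffer, then given 60 nM [3H]-glycine plus 25 μM unlabelled glycine. Cell radioactivity counted by scintillation; nonspecific uptake defined with 10 mM glycine; IC50 from concentration range.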

SMILES	IC50 [µM]
CS(=O)(=O)c1ccc(OC2CCCCC2)c(C(=O)N2CCN(c3ccc(C#N)cc3F)CC2)c1 [compound 283]	0.008
CC(Oc1ccc(S(C)(=O)=O)cc1C(=O)N1CCN(c2ccc(C#N)cc2F)CC1)C(F)(F)F (racemic) [compound 299]	0.044
CNS(=O)(=O)c1ccc(OC2CCCC2)c(C(=O)N2CCN(c3ccc(C#N)cc3)CC2)c1 [compound 491]	0.037
CC(C)COc1ccc(S(C)(=O)=O)cc1C(=O)N1CCN(c2ccc(C(F)(F)F)cc2C#N)CC1 [compound 375]	0.035
CC(C)(C)Oc1ccc(S(C)(=O)=O)cc1C(=O)N1CCN(c2ccc(C#N)c(F)c2F)CC1 [compound 196]	0.041
CC(C)COc1ccc(S(C)(=O)=O)cc1C(=O)N1CCN(c2ccc(S(=O)(=O)C3CC3)cc2F)CC1 [compound 578]	0.041
CS(=O)(=O)c1ccc(OCCC(F)(F)F)c(C(=O)N2CCN(c3ccc(C#N)cc3F)CC2)c1 [compound 112]	0.024
CCC(C)Oc1ccc(S(C)(=O)=O)cc1C(=O)N1CCN(c2ccc(S(=O)(=O)CC)cc2F)CC1 (racemic) [compound 568]	0.044
CS(=O)(=O)c1ccc(N2CCN(C(=O)c3cc(S(C)(=O)=O)ccc3OC3CCCCC3)CC2)c(F)c1 [compound 288]	0.025
CC(=O)c1ccc(N2CCN(C(=O)c3cc(S(C)(=O)=O)ccc3OC(C)C)CC2)cc1F [compound 367]	0.036
CNS(=O)(=O)c1ccc(OCC(C)C)c(C(=O)N2CCN(c3ccc(C(F)(F)F)cc3)CC2)c1 [compound 524]	0.012
CS(=O)(=O)c1ccc(OC2CCCC2)c(C(=O)N2CCN(c3ncc(C(F)(F)F)cc3Cl)CC2)c1 [compound 413]	0.03
O=C(c1cc([N+](=O)[O-])ccc1OCC(F)(F)C(F)F)N1CCN(c2ccc(C(F)(F)F)cc2)CC1 [Example 80, [5-Nitro-2-(2,2,3,3-tetrafluoro-propoxy)-phenyl]-[4-(4-trifluoromethyl-phenyl)-piperazin-1-yl]-methanone]	0.029
CC(C)Oc1ccc(S(C)(=O)=O)cc1C(=O)N1CCN(c2ccc(C(F)(F)F)cc2C#N)CC1 [compound 363]	0.008
CNS(=O)(=O)c1ccc(OCC(F)(F)F)c(C(=O)N2CCN(c3ccc(C(F)(F)F)cc3)CC2)c1 [compound 537]	0.03
CS(=O)(=O)c1ccc(OCC2CC2)c(C(=O)N2CCN(c3cc(F)c(C#N)c(F)c3)CC2)c1 [compound 170]	0.031
CS(=O)(=O)c1ccc(OC2CCCC2)c(C(=O)N2CCN(c3ncc(C(F)(F)F)cc3F)CC2)c1 [compound 439]	0.021
CC(C)COc1ccc(S(C)(=O)=O)cc1C(=O)N1CCN(c2ccc(S(C)(=O)=O)c(F)c2)CC1 [compound 371]	0.041
CC(C)(C)COc1ccc(S(C)(=O)=O)cc1C(=O)N1CCN(c2ccc(C#N)c(F)c2)CC1 [compound 292]	0.021

SMILES	IC50 [µM]
CS(=O)(=O)c1ccc(OC2CCCCC2)c(C(=O)N2CCN(c3ccc(C#N)c(F)c3)CC2)c1 [compound 284]	0.01
CS(=O)(=O)c1ccc(OCC2CCC2)c(C(=O)N2CCN(c3cc(F)c(C#N)cc3F)CC2)c1 [compound 146]	0.019
O=C(c1cc([N+](=O)[O-])ccc1OC1CCC1)N1CCN(c2ccc(C(F)(F)F)cc2)CC1 [Example 74, (2-Cyclobutoxy-5-nitro-phenyl)-[4-(4-trifluoromethyl-phenyl)-piperazin-1-yl]-methanone]	0.016
CC(C)Oc1ccc(S(C)(=O)=O)cc1C(=O)N1CCN(c2ccc(Cl)cc2C#N)CC1 [compound 202]	0.024
CS(=O)(=O)c1ccc(OC2CCCC2)c(C(=O)N2CCN(c3cc(F)c(C#N)cc3F)CC2)c1 [compound 135]	0.041
CC(C)(C)COc1ccc(S(C)(=O)=O)cc1C(=O)N1CCN(c2ccc(C#N)cc2)CC1 [compound 290]	0.017
CS(=O)(=O)c1ccc(OCC(F)(F)C(F)F)c(C(=O)N2CCN(c3ccc(C#N)cc3F)CC2)c1 [compound 210]	0.039
CNS(=O)(=O)c1ccc(OCCC(F)(F)F)c(C(=O)N2CCN(c3ccc(C(F)(F)F)cc3)CC2)c1 [compound 531]	0.028
CC(C)(Oc1ccc(S(C)(=O)=O)cc1C(=O)N1CCN(c2ncc(C(F)(F)F)cc2F)CC1)C(F)(F)F [compound 637]	0.047
CCC(C)Oc1ccc(S(C)(=O)=O)cc1C(=O)N1CCN(c2ccc(C(C)=O)cc2F)CC1 (racemic) [compound 319]	0.031
CC(C)Oc1ccc(S(C)(=O)=O)cc1C(=O)N1CCN(c2ccc(S(=O)(=O)C(F)(F)F)cc2)CC1 [Example 328, (2-Isopropoxy-5-methanesulfonyl-phenyl)-[4-(4-trifluoromethanesulfonyl-phenyl)-piperazin-1-yl]-methanone]	0.032
CCS(=O)(=O)c1ccc(N2CCN(C(=O)c3cc(S(C)(=O)=O)ccc3OCC(C)C)CC2)c(F)c1 [compound 566]	0.03
CC(=O)c1ccc(N2CCN(C(=O)c3cc(S(C)(=O)=O)ccc3OCC3CC3)CC2)cc1F [compound 369]	0.032
C[C@H](Oc1ccc(S(C)(=O)=O)cc1C(=O)N1CCN(c2ncc(C(F)(F)F)cc2F)CC1)C(F)(F)F (racemic) [compound 470]	0.03
CC(C)Oc1ccc(S(C)(=O)=O)cc1C(=O)N1CCN(c2cc(F)c(S(=O)(=O)C3CC3)cc2F)CC1 [compound 595]	0.049
CC(C)Oc1ccc(S(C)(=O)=O)cc1C(=O)N1CCN(c2ccc(C(F)(F)F)cc2F)CC1 [Example 5, [4-(2-fluoro-4-trifluoromethyl-phenyl)-piperazin-1-yl]-(2-isopropoxy-5-methanesulfonyl-phenyl)-methanone]	0.012
CC(Oc1ccc(S(C)(=O)=O)cc1C(=O)N1CCN(c2ccc(C(F)(F)F)cc2)CC1)C(F)(F)F (single isomer, unassigned) [compound 468]	0.02
CNS(=O)(=O)c1ccc(OC(C)C(F)(F)F)c(C(=O)N2CCN(c3cc(F)c(C#N)cc3F)CC2)c1 (racemic) [compound 557]	0.042
